# How the values were obtained:
# [1] = test system: diabetic (ob/ob) mice; assay: Blood glucose lowering activity in diabetic (ob/ob) mice; format: in vivo; settings: for % Change Glucose from Vehicle: plasma glucose
# Source text: The procedures used and results obtained are briefly described below.
# The non-insulin dependent diabetic (NIDDM) syndrome can be typically characterizes by obesity, hyperglycemia, abnormal insulin secretion, hyperinsulinemia and insulin resistance.
# In each test procedure, mice [Male or female ob/ob (C57 B1/6J) and their lean litermates (ob/+ or +/+, Jackson Laboratories) ages 2 to 5 months (10 to 65 g)] of a similar age were randomized according to body weight into 4 groups of 10 mice. The mice were housed 5 per cage and are maintained on normal rodent chow with water ad libitum. Mice received test compound daily by gavage (suspended in 0.5 ml of 0.5% methyl cellulose); dissolved in the drinking water; or admixed in the diet. The dose of compounds given ranges from 2.5 to 200 mg/kg body weight/day. The dose is calculated based on the fed weekly body weight and is expressed as active moiety. The positive control, ciglitazone ([…], see Chang, A., Wyse, B., Gilchrist, B., Peterson, T. and Diani, A. Diabetes 32: 830-838, 1983.) was given at a dose of 100 mg/kg/day, which produces a significant lowering in plasma glucose. Control mice received vehicle only.
# On the morning of Day 4, 7 or 14 two drops of blood (approximately 50 ul) were collected into sodium fluoride containing tubes either from the tail vein or after decapitation. For those studies in which the compound was administered daily by gavage the blood samples were collected two hours after compound administration. The plasma was isolated by centrifugation and the concentration of glucose is measured enzymatically on an Abbott V. P. Analyzer.
# For each mouse, the percentage change in plasma glucose on Day 4, 7 or 14 is calculated relative to the mean plasma glucose of the vehicle treated mice. Analysis of variance followed by Dunett's Comparison Test (one-tailed) are used to estimate the significant difference between the plasma glucose values from the control group and the individual compound treated groups (CMS SAS Release 5.18).
# [2] = test system: rat hepatic microsomal PTPases; settings: PTPase activity; compounds at 50 μM
# [3] = molecular target: T1, Human recombinant PTP1B (Homo sapiens, UniProt P18031); format: biochemical
# T1 construct: made in house
# T1 sequence (P18031 1-435): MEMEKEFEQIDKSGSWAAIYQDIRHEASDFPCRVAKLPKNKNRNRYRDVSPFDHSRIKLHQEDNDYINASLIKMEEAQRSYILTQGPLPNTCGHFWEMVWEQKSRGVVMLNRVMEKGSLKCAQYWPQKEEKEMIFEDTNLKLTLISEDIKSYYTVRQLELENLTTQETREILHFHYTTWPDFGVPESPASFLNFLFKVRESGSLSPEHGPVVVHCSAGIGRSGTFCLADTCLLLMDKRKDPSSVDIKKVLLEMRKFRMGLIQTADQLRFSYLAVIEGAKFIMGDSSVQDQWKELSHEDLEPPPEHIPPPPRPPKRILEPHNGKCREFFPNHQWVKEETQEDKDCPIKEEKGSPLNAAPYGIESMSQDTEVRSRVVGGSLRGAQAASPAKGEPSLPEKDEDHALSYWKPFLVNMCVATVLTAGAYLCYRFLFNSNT
Molecule,% Change from Control [2],IC50 [3],other results
"CC1(COc2ccc(CC3SC(=O)NC3=O)cc2)CCCCC1 (stereo not shown) [Ciglitazone, 5-(4-(1-methylcyclohexylmethoxy)benzyl)-2,4-dione, reference compound]",,,% Change Insulin from Vehicle ([1]; dose 100 mg/Kg): −39%; % Change Glucose from Vehicle ([1]; dose 100 mg/Kg): −43%
"Cc1oc2cc3sc4ccccc4c3c(-c3ccc(O)cc3)c2c1C [Example 5, 4-(2,3-Dimethyl-1-oxa-9-thia-cyclopenta[b]fluoren-4-yl)-phenol]",,,melting point: 174 to 175 °C
"Cc1oc2cc3sc4ccccc4c3c(-c3cc(I)c(O[C@H](C)C(=O)O)c(I)c3)c2c1C [Example 8, (R)-2-[4-(2,3-Dimethyl-1-oxa-9-thia-cyclopenta[b]fluoren-4-yl)-2,6-diiodo-phenoxy]-propionic acid]",−58.84%,284 nM,

# Now from value to molecule, other results behind:
% Change from Control [2],IC50 [3],Molecule,other results
−72.70%,74 nM,"Cc1oc2cc3sc4ccccc4c3c(-c3cc(I)c(O[C@H](Cc4ccccc4)C(=O)O)c(I)c3)c2c1C [Example 9, (R)-2-[4-(2,3-Dimethyl-1-oxa-9-thia-cyclopenta[b]fluoren-4-yl)-2,6-diiodo-phenoxy]-3-phenyl-propionic acid]","% Change Insulin from Vehicle ([1]; dose 10 mg/Kg): −43.43%; % Change Glucose from Vehicle ([1]; dose 10 mg/Kg, footnote (a): no significant activity (p < 0.05) at this dose): 8.13%"
,8700 nM,Ammonium molybdate tetrahydrate [reference compound],
